These results are taken from ChEMBL document CHEMBL1201862, “PubChem BioAssay data set” (2004).

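Cells were grown in 96-well plates and exposed to each compound for 48 hours at five concentrations; endpoints were interpolated linearly between bracketing concentrations, or set to the highest concentration if not reached. GI50 = concentration required for 50% inhibition of growth.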 Calls of active or inactive are those of the source. No stated cut-off is given here; in the data, active = GI50 up to about 1.1 µM and inactive = higher.

Some test systems named below: 786-0; EKVX; HCT-116; IGROV-1; MCF7; MDA-MB-435; NCI-H460; NCI-H522; OVCAR-4; SF-295; SK-MEL-5; SNB-19; SR; TK-10; U-251; UACC-62; UO-31; ACHN; RXF 393; SK-MEL-2.
What all share (assay): NCI tumour cell line growth inhibition, 48 h

On to `CCOc1ncn(-c2ccc(NC(=S)NC34CC5CC(CC(C5)C3)C4)cc2)n1`, for which the GI50 in the assay with 786-0 is 13.2 µM (inactive); in the assay with EKVX, > 100 µM (inactive); in the assay with HCT-116, 68.4 µM (inactive); in the assay on IGROV-1 it was > 100 µM (inactive); in the assay with MCF7, > 100 µM (inactive); in the assay with MDA-MB-435, > 100 µM (inactive). The GI50 with NCI-H460 was 53.5 µM (inactive); in the assay on NCI-H522 it was 99.1 µM (inactive); in the assay with OVCAR-4, 22.3 µM (inactive); with SF-295, 48.4 µM (inactive); in the assay with SK-MEL-5 it was 58.5 µM (inactive); with SNB-19 it was 46.1 µM (inactive). Further, the GI50 in the assay with SR was > 100 µM (inactive); in the assay on TK-10, 59.2 µM (inactive); in the assay on U-251 it was > 10 µM (inactive); with UACC-62 it was 38 µM (inactive); in the assay on UO-31, > 100 µM (inactive).

As for `CCCCCCCC(CC(=O)NC(CO)C(=O)NC(CO)CC(C)C)OC(=O)CC(CCCCCCC)OC(=O)CC(CCCCCCC)OC1OC(C)C(O)C(OC2OC(C)C(O)C(OC(C)=O)C2O)C1O` (stereo unspecified), the GI50 with 786-0 is 13.4 µM (inactive); in the assay with ACHN, 17.2 µM (inactive); with EKVX, 15.3 µM (inactive); with HCT-116 it was 13.1 µM (inactive); in the assay with IGROV-1, 12.3 µM (inactive); with MCF7 it was 11.9 µM (inactive). Also, the GI50 was 11 µM (inactive) in the assay on MDA-MB-435; 13.3 µM (inactive) with NCI-H460; 15 µM (inactive) with NCI-H522; 12.8 µM (inactive) with OVCAR-4; 8.34 µM (inactive) in the assay on RXF 393; 15.8 µM (inactive) in the assay with SF-295. Further, the GI50 in the assay with SK-MEL-5 was 12.6 µM (inactive); with SNB-19, 6.43 µM (inactive); in the assay with SR it was 3.27 µM (inactive); in the assay with TK-10, 15.6 µM (inactive); in the assay on U-251, 4.2 µM (inactive); in the assay on UACC-62 it was 12.9 µM (inactive). For the same compound, the GI50 with UO-31 was 14.9 µM (inactive).

For the compound `O=C(O)CC(NC(=O)/C(=C/c1ccccc1O)NC(=O)c1ccccc1)C(=O)O` (stereo unspecified), the GI50 in the assay on 786-0 was > 100 µM (inactive); in the assay on ACHN, 40.8 µM (inactive); with EKVX it was 83.9 µM (inactive); in the assay with HCT-116 it was > 100 µM (inactive); in the assay on IGROV-1, 58.9 µM (inactive); in the assay on MCF7, 34 µM (inactive). The GI50 in the assay on MDA-MB-435 was 85.9 µM (inactive); in the assay with NCI-H522 it was 65.5 µM (inactive); with OVCAR-4 it was > 100 µM (inactive); in the assay with SF-295, > 100 µM (inactive); in the assay with SK-MEL-2, > 100 µM (inactive); in the assay on SK-MEL-5, > 100 µM (inactive). Further, the GI50 was 29.8 µM (inactive) with SR; > 100 µM (inactive) with TK-10; 54.7 µM (inactive) in the assay with U-251; 42.5 µM (inactive) in the assay with UACC-62; 43.4 µM (inactive) with UO-31.

In the case of `O=C1Cc2c([nH]c3ccccc23)C2(CC3CCCCN13)OCCO2` (stereo unspecified), the GI50 in the assay on 786-0 is > 100 µM (inactive); with ACHN, > 100 µM (inactive); in the assay on EKVX, > 100 µM (inactive); in the assay on HCT-116 it was > 100 µM (inactive); in the assay on IGROV-1 it was 45.2 µM (inactive); with MCF7, > 100 µM (inactive). The GI50 was > 100 µM (inactive) in the assay on MDA-MB-435; > 100 µM (inactive) with NCI-H460; > 100 µM (inactive) in the assay on OVCAR-4; 29.2 µM (inactive) in the assay on RXF 393; > 100 µM (inactive) in the assay on SF-295; > 100 µM (inactive) in the assay with SK-MEL-2. The GI50 is > 100 µM (inactive) with SK-MEL-5; > 100 µM (inactive) in the assay on SNB-19; > 100 µM (inactive) with SR; > 100 µM (inactive) in the assay on TK-10; > 100 µM (inactive) with U-251; 76.9 µM (inactive) with UACC-62. Further, the GI50 with UO-31 is > 100 µM (inactive).

For `COc1cc2c(c(OC)c1OC)C(=O)[C@H]1OC(=O)N[C@@H]21`, the GI50 in the assay on 786-0, in the assay with ACHN, with HCT-116, with MCF7, in the assay on MDA-MB-435 and in the assay with OVCAR-4 was > 100 µM (inactive) throughout. For the same compound, the GI50 in the assay on RXF 393, in the assay with SF-295, in the assay with SK-MEL-2, in the assay on SNB-19, in the assay on SR and in the assay on TK-10 was > 100 µM (inactive) each time. The GI50 in the assay on U-251, in the assay on UACC-62 and with UO-31 was > 100 µM (inactive) in each case.

Regarding `Cn1c2ccccc2c2c(=S)c3ccccc3ccc21`, the GI50 with 786-0 was > 100 µM (inactive); in the assay with ACHN, > 100 µM (inactive); with EKVX, 85.9 µM (inactive); in the assay on HCT-116, 59 µM (inactive); in the assay on IGROV-1, 81.8 µM (inactive); in the assay on MCF7, 56.8 µM (inactive). Besides, the GI50 in the assay on MDA-MB-435 is > 100 µM (inactive); in the assay on NCI-H460, > 100 µM (inactive); with NCI-H522, 36.8 µM (inactive); in the assay with OVCAR-4 it was 44.6 µM (inactive); in the assay with RXF 393 it was > 100 µM (inactive); in the assay on SF-295, 76 µM (inactive). Besides, the GI50 in the assay on SK-MEL-5 is 44.6 µM (inactive); in the assay with SNB-19, > 100 µM (inactive); with SR it was > 100 µM (inactive); in the assay with TK-10, > 100 µM (inactive); with U-251, 52.8 µM (inactive); with UACC-62, > 100 µM (inactive). Also, in the assay on UO-31, the GI50 was > 100 µM (inactive).

For the compound `C(=N\NC1=NCCN1)/c1cccc2cc3ccncc3nc12`, the GI50 in the assay with 786-0 was 1.95 µM (inactive); in the assay on ACHN it was 2.84 µM (inactive); in the assay with EKVX it was 2.86 µM (inactive); in the assay with HCT-116 it was 1.57 µM (inactive); in the assay on IGROV-1, 3.24 µM (inactive); with MCF7, 3.16 µM (inactive). Besides, the GI50 is 2.49 µM (inactive) in the assay with MDA-MB-435; 4.36 µM (inactive) in the assay on NCI-H460; 3.33 µM (inactive) in the assay on NCI-H522; 3.33 µM (inactive) in the assay on OVCAR-4; 2.77 µM (inactive) with RXF 393; 3.04 µM (inactive) with SF-295. The GI50 with SK-MEL-5 was 9.51 µM (inactive); in the assay on SNB-19, 9.53 µM (inactive); with SR, 1.08 µM (active); in the assay with TK-10, 10.4 µM (inactive); in the assay with U-251, 1.94 µM (inactive); with UACC-62, 3.43 µM (inactive). For the same compound, the GI50 in the assay with UO-31 is 3.21 µM (inactive).

On to `CCOC(=O)Nn1cnnc1Cc1ccccc1`, for which the GI50 with 786-0, in the assay with ACHN, in the assay on EKVX, with HCT-116, with IGROV-1 and with MCF7 was > 100 µM (inactive) in each case. The GI50 in the assay with MDA-MB-435, in the assay on NCI-H460, with NCI-H522, in the assay on OVCAR-4, with SF-295 and in the assay with SK-MEL-2 was > 100 µM (inactive) each time. Moreover, the GI50 with SK-MEL-5, with SNB-19, in the assay with SR, in the assay with TK-10, in the assay on U-251 and in the assay with UACC-62 was > 100 µM (inactive) throughout. The GI50 with UO-31 was > 100 µM (inactive).

`CC(C)=C/C(CC(O)(C(F)(F)F)C(F)(F)F)=N\O`: the GI50 in the assay with 786-0, in the assay on ACHN, in the assay on EKVX, in the assay on HCT-116, in the assay with IGROV-1 and with MCF7 was > 100 µM (inactive) each time. Further, the GI50 in the assay on MDA-MB-435, in the assay with NCI-H460, with OVCAR-4, in the assay on RXF 393, in the assay with SF-295 and in the assay on SK-MEL-5 was > 100 µM (inactive) throughout. The GI50 in the assay on SNB-19, in the assay with SR, with TK-10, in the assay on U-251, in the assay with UACC-62 and in the assay on UO-31 was > 100 µM (inactive) each time.

For the compound `C=C(C)CCC1C=[N+]([O-])OC(C)(C)C1(C)C` (stereo unspecified), the GI50 in the assay on 786-0 was > 100 µM (inactive); in the assay on ACHN, > 100 µM (inactive); in the assay on EKVX it was > 100 µM (inactive); in the assay with HCT-116 it was > 100 µM (inactive); with IGROV-1, > 100 µM (inactive); in the assay on MCF7, 73.5 µM (inactive). Besides, the GI50 in the assay on MDA-MB-435, in the assay on NCI-H460, with NCI-H522, in the assay on RXF 393, with SF-295 and with SK-MEL-5 was > 100 µM (inactive) each time. For the same compound, the GI50 in the assay with SR is > 100 µM (inactive); in the assay on TK-10, > 100 µM (inactive); in the assay on U-251 it was > 100 µM (inactive); in the assay with UACC-62, 79.1 µM (inactive); with UO-31, > 100 µM (inactive).

Turning to `Cc1ccc(CNc2ccc(Br)cc2)cc1`, the GI50 in the assay on 786-0 is 48.3 µM (inactive); in the assay with ACHN, 11.4 µM (inactive); with EKVX, 25.6 µM (inactive); in the assay with HCT-116, 26.7 µM (inactive); in the assay with MCF7, 18.7 µM (inactive); in the assay with MDA-MB-435, 22.8 µM (inactive). For the same compound, the GI50 in the assay with NCI-H460 was 23.8 µM (inactive); in the assay on NCI-H522, 17.7 µM (inactive); with RXF 393, 23.1 µM (inactive); with SF-295, 47.8 µM (inactive); in the assay on SK-MEL-5, 6.71 µM (inactive); in the assay with SNB-19, > 100 µM (inactive). For the same compound, the GI50 in the assay on SR is 18.8 µM (inactive); with TK-10 it was 40 µM (inactive); with U-251, 28.1 µM (inactive); with UACC-62, 4.41 µM (inactive); with UO-31 it was 13.5 µM (inactive).
